pIC50: −log10 of the molar value. Read-outs that look alike come from different tables or passages of the source.
Tests used:
[1] = system: DU145 prostate cancer cell line; experiment: Cytotoxicity against DU145 prostate cancer cells
[2] = system: A2058 melanoma cell line; experiment: Cytotoxicity against A2058 melanoma cells
[3] = system: P388 murine leukemia cell lines; experiment: Cytotoxicity against P388 murine leukemia cells
[4] = system: NCI 60 cell line panel; experiment: NCI 60 cell line panel evaluation; type: cell-based; conditions: read-out: mean GI50
[5] = Homo sapiens, DU-145, read-out: Cytotoxicity IC50, DU145
[6] = Homo sapiens, A2058, read-out: Cytotoxicity IC50, A2058
[7] = read-out: Cytotoxicity IC50, P388, P388 murine leukemia cells
[8] = read-out: Cytotoxicity IC50, DU145, DU145 prostate cancer cells
[9] = read-out: Cytotoxicity IC50, A2058, A2058 melanoma cells

SMILES	pIC50 [1, 5]	pIC50 [2, 6]	pIC50 [3, 7]	pIC50 [1, 8]	pIC50 [2, 9]	further results
COC(=O)C[C@](O)(CCCC(C)(C)O)C(=O)O[C@@H]1C(OC)=C[C@]23CCCN2CCc2cc4c(cc2[C@H]13)OCO4 [compound 1, homoharringtonine, reference compound]	6.64	6.77	–	–	–	–
C[C@@H]1C[C@@H]([C@H](O)CC2CC(=O)NC(=O)C2)C(=O)[C@@H](C)C1 [compound 2, cycloheximide, reference compound]	< 5.00	< 5.00	–	–	–	pIC50 ([3]; Mus musculus, P388, read-out: Cytotoxicity IC50, P388): 5.25
C=C1[C@@H](O)C[C@H]2C(C)(C)C[C@H](Cl)C[C@]2(C)[C@H]1C[C@H](O)[C@H]1CC(=O)NC1=O [compound 3, chlorolissoclimide]	6.31	6.60	–	–	–	GI50 [4]: 15 nM
C=C1[C@@H](O)C[C@H]2C(C)(C)[C@@H](Cl)[C@H](Cl)C[C@]2(C)[C@H]1C[C@H](O)[C@H]1CC(=O)NC1=O [compound 4, dichlorolissoclimide, reference compound]	–	–	–	–	–	pIC50 ([3]; Mus musculus, P388, read-out: Cytotoxicity IC50 against P388): ~6.40
C=C1[C@@H](OC(C)=O)C[C@H]2C(C)(C)C[C@H](Cl)C[C@]2(C)[C@H]1C[C@H](O)[C@H]1CC(=O)NC1=O [compound 7]	–	–	5.68	6.34	5.46	–
C=C1[C@@H](O)C[C@H]2C(C)(C)CCC[C@]2(C)[C@H]1C[C@H](O)[C@H]1CC(=O)NC1=O [compound 8, haterumaimide Q]	–	–	6.70	5.83	5.63	–
